US9447438B2, “Acetyl-coA carboxylases” (OPX Biotechnologies, Inc., priority 2013, dated 2016)

Key:
[1] = biological target: E. coli ACCase (Escherichia coli, UniProt P0A9Q5+P0ABD5+P0ABD8+P24182); settings: FIG. 4; for effect of salt on E. coli ACCase activity: compared to H. elongata ACCase; for decrease of the activity of the ACCase enzyme relative to control: salt levels near 0.44M
Description: Levels of greater than 0.66M (60 g/L) are expected to be present for commercially viable commercial production of 3-HP.
Each gene was amplified by PCRs with Pfu Ultra II HS using the manufacturer's instructions, and the PCR products were purified using the Zymo PCR Cleanup kit. Concentrations of products were measured using the Nanodrop spectophotometer. The Gibson Assembly kit (NEB) was used to construct plasmids expressing the ACCase subunit genes as directed by the manufacturer. The effect of NH4-3-HP and NH4Cl on H. elongata ACCase was tested and compared to the E. coli ACCase.

[2] = system: H. elongata ACCase; assay: Effect of NH4-3-HP and NH4Cl on H. elongata ACCase; format: biochemical, Halomonas elongata; settings: FIG. 4; compared to E. coli ACCase
Description: Concentrations of products were measured using the Nanodrop spectophotometer.

Chain of E. coli ACCase (P0A9Q5 whole entry): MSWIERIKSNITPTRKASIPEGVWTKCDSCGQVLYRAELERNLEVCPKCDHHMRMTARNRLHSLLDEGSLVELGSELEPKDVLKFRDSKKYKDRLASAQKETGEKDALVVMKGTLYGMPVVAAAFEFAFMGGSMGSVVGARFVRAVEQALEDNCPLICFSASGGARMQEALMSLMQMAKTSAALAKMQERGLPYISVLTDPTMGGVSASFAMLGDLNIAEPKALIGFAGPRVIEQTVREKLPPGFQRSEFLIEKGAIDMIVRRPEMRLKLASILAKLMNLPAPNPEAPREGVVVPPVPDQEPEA
Chain of E. coli ACCase (P0ABD5 whole entry): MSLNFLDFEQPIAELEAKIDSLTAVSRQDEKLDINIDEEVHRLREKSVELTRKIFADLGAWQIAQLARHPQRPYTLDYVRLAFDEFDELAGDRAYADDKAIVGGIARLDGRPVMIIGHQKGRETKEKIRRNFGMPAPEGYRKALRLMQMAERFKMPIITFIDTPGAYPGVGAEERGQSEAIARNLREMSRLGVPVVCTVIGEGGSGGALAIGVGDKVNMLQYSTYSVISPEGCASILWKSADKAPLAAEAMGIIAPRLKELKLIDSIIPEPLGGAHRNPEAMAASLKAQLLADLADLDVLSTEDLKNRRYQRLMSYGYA

Row | SMILES | effect of salt on E. coli ACCase activity [1] | effect of salt on H. elongata ACCase activity [2] | decrease of the activity of the ACCase enzyme relative to control [1]
1 | N.O=C(O)CCO [NH4-3-HP] | significantly inhibited | less affected | 
2 | Cl.N [NH4Cl] | significantly inhibited | less affected | approximately 80%
3 | [Cl-].[Na+] [NaCl] |  |  | approximately 80%
